Assay results published in patent publication US20210161851A1, “COMBINATION THERAPY OF LYMPHOMA” (Deutsches Krebsforschungszentrum, priority 2019, published 2021).

What was measured:
[1] = test system: J16 cells; assay: Cell death assay in non-CTCL cell line J16; format: cell-based; conditions: different concentrations, 24 h
Source text: (§1) ABT-199, ABT-263 and the mouse antibody against human Bcl-2 were obtained from Santa Cruz Biotechnology. DMF and monomethyl fumarate (MMF) were purchased from Sigma-Aldrich. Caspase-3 and cleaved-Caspase-3 antibodies came from Cell Signaling Technology, Ki-67 antibodies from Novacastra. Primary CD4+ T cells were isolated from heparinized whole blood and treated as indicated (Nicolay et al. (2016), Blood 128(6):805-815). Cell lines were obtained from ATCC (HH, J16) or generously donated by Drs. Gniadecki and Pless from Bispebjerg Hospital Copenhagen, Denmark and Dr. Kaltoft, Aarhus University Denmark (SeAx) or Prof. Eichmuiller from DKFZ Heidelberg, Germany (MyLa), and cultured as described (Nikolay et al, ibd.)
(§2) 1.3 Cell Death Assays, Quantitative Reverse Transcript (qRT) PCR, Western Blot were Performed as According to Standard Methods.

[2] = test system: SeAx xenograft tumors; assay: Orthotopic SeAx xenograft CTCL mouse model: tumor growth and survival; format: in vivo, NSG mice; conditions: for tumor growth: ABT-199 100 mg/kg once oral, DMF 30 mg/kg i.p. once daily for 28 days; for overall survival: SeAx xenograft NSG mice; for animals still under follow-up (survival rate): day 30, one day after the end of the treatment phase
Protocol: (§3) All animal experiments were in accordance with the approved guidelines of the local Governmental Committee for Animal Experimentation (RP Karlsruhe, Germany, license G282/15). Mice were maintained at a 12 h light-dark cycle with unrestricted diet and water. Under isoflurane inhalation anesthesia (1-1.5% in O2, 0.5 L/min), 3×10^6 SeAx cells suspended in 30 μl of PBS/Matrigel (1:1, v/v) were injected intradermally (i.d.) into the right flank of 6-7-week-old female NOD SCID gamma (NSG) mice recruited from the Center for Preclinical Research, DKFZ, Heidelberg and kept on Kliba diet 3307 with n=8 mice/group. When tumors reached palpable size (mean of 0.025 cm^3) mice were randomized and treated first as indicated once by oral gavage with ABT-199 dissolved in a vehicle of […], 30% polyethylenglycol 400 and 10% ethanol at a concentration of 100 mg/kg body weight, 10 μl/g mouse or vehicle alone as indicated. One day later, intraperitoneal (i.p.) treatment with DMF once daily for 28 days was started as indicated. The compound, dissolved at 3 mg/ml in 30° C. pre-warmed PBS, was given with 10 μl/g mouse at a dose of 30 mg/kg bodyweight. For control, PBS (10 μl/g mouse) was injected. Tumor volume was measured with a caliper 2-3 times a week and calculated according to the formula: V=(length (mm)×width (mm)^2)/2. Necropsies were taken when one tumor diameter reached 1.5 cm or when mice reached stop criterion of the German Society of Laboratory Animal Sciences (GV-SOLAS), here defined as survival. For tissue staining, the liver and a quarter of the tumor was fixed in 4% PBS-buffered formaldehyde and embedded into paraffin according to routine procedures.

[3] = test system: SeAx xenograft tumors; assay: Histology and immunohistochemistry of SeAx xenograft tumors; format: in vivo, NSG mice; conditions: for Ki-67 positivity (proliferation index) / caspase 3 cleavage within the xenograft tumors: immunohistochemistry, 400×
Protocol: as §3
Hematoxylin and eosin staining as well as immunohistochemistry were performed on 5 μm paraffin sections as described. For immunohistochemical stainings, paraffin-embedded tissue was sectioned into 5 μm slices. Ki-67 was detected in deparaffinized tissue specimens after antigen retrieval (20 min at boiling temperature in 10 mM sodium citrate pH 6.0), block of endogenous peroxidases in 3% H2O2 in PBS for 10 min, block in 100% goat serum for 1 h at room temperature (RT) and incubation overnight at 4° C. in a 1:250 dilution of anti-Ki-67 antibodies (NCL-Ki67p, Novacastra). Slides were incubated with appropriate horse-radish peroxidase (HRP)-coupled secondary antibody (1:200) for 1 h at RT, incubated with HRP substrate solution (DAB/H2O2, Sigma, Munich/Germany). Nuclei were counterstained with hematoxylin for 1 min. Mounting was in Eukitt (R. Langenbrinck, Teningen/Germany). Sections incubated without primary antibody were included as negative controls.
Immunohistochemical assessment of the tissue slides was performed by a dermatologist (JPN) and a pathologist (TA).
For microscopy, the following Nikon objective lenses were used (Nikon, Tokio, Japan): Nikon Plan Apoλ 2×/0.1, Nikon Plan Apoλ 20×/0.75. Microscopy was performed at 22° C. throughout with cryopreserved or paraffin sections. As fluorochromes phycoerythrin (PE), fluorescein-isothiocyanate (FITC) and DAPI were used for red, green and blue stainings, respectively. The micrographs were taken with a Nikon DS-Fi2 camera using the Nikon DS-L3 software.

[4] = test system: Bax/Bak interaction in SeAx cells; assay: Proximity ligation assay (PLA) of Bax/Bak in SeAx cells; format: cell-based
Protocol: (§4) In order to determine protein interactions a proximity ligation assay was performed with Duolink® PLA by Sigma-Aldrich as described before (Schroeder et al. (2017), Nat. Publ. Gr. October 2016:1-12). The rabbit antibody against Bak and the mouse antibody against Bax were obtained from Abcam.

[5] = test system: SeAx cells; assay: Cell death assay in CTCL cell line SeAx; format: cell-based; conditions: different concentrations, 24 h
Source text: as §1, §2

[6] = test system: caspase 3 cleavage in SeAx cells; assay: Western blot of caspase 3 cleavage in SeAx cells; format: cell-based; conditions: 100 or 1000 nM ABT-199, 50 μM DMF
Source text: as §1, §2

[7] = test system: caspase 3 cleavage in HH cells; assay: Western blot of caspase 3 cleavage in HH cells; format: cell-based; conditions: 100 or 1000 nM ABT-199, 50 μM DMF
Source text: as §1, §2

[8] = test system: primary healthy CD4+ T cells; assay: Cell death assay in primary CD4+ cells of healthy donors; format: cell-based, human; conditions: different concentrations
Protocol: (§5) Seven patients with Sezary syndrome (CTCL stage IV) diagnosed according to WHO-EORTC classification of CTCL and criteria of the international society of cutaneous lymphomas were included in the study. As controls, we investigated blood samples of healthy donors (n=7). Informed consent was obtained from all subjects before inclusion. The study was conducted according to ethical guidelines at our institution and the Helsinki Declaration and was approved by the ethics committee II of the University of Heidelberg.
as §1, §2

[9] = test system: Bax/Bak interaction in HH cells; assay: Proximity ligation assay (PLA) of Bax/Bak in HH cells; format: cell-based
Protocol: as §4

[10] = test system: primary CD4+ CTCL cells; assay: Cell death assay in primary CD4+ CTCL cells of Sezary patients; format: cell-based, human; conditions: increasing concentrations, 24 h and 48 h
Protocol: as §5, §1, §2

[11] = test system: MyLa cells; assay: Cell death assay in CTCL cell line MyLa; format: cell-based
Source text: as §1, §2

[12] = test system: HH cells; assay: Cell death assay in CTCL cell line HH; format: cell-based; conditions: different concentrations, 24 h
Source text: as §1, §2

[13] = target: Bcl-xL (Homo sapiens, UniProt Q07817); conditions: inhibition of Bcl-xL; cited from earlier work
Chain of Bcl-xL (Q07817 whole entry, species assumed): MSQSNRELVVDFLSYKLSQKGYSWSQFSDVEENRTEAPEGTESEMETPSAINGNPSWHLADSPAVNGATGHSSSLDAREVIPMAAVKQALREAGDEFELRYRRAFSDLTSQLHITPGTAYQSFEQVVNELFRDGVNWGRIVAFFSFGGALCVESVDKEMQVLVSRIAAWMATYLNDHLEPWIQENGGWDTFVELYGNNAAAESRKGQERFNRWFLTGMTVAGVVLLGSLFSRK

[14] = test system: Bcl-2; assay: Western blot of Bcl-2 family protein levels upon NFκB inhibition; format: cell-based, human; conditions: J16, HH and SeAx cells
Source text: as §1, §2

Compound	cell death sensitivity [1]	tumor growth [2]	overall survival [2]	animals still under follow-up (survival rate) [2] [%]	animals dropped out of the group ([2]; within the first 10 days after monotreatment, ABT-199 100 mg/kg once by oral gavage, n=8)	Ki-67 positivity (proliferation index) [3]	caspase 3 cleavage within the xenograft tumors [3]	green fluorescence (Bax/Bak interaction, PLA) [4]	cell death sensitivity [5]	caspase 3 cleavage [6]	caspase 3 cleavage [7]	cell death effect [8]	Bax/Bak interaction (PLA) [9]	specific cell death [10]	cell death sensitivity [11]	cell death response [12]	number of circulating platelets [13]	mitotic activity (mitosis figures in H&E specimens) ([3]; 200× magnification)	protein levels of Bcl-2 or other anti-apoptotic Bcl-2 family members like Mcl-1 [14]
CC1(C)CCC(CN2CCN(c3ccc(C(=O)NS(=O)(=O)c4ccc(NCC5CCOCC5)c([N+](=O)[O-])c4)c(Oc4cnc5[nH]ccc5c4)c3)CC2)=C(c2ccc(Cl)cc2)C1 [ABT-199, 4-[4-[[2-(4-chlorophenyl)-4,4-dimethyl-1-cyclohexen-1-yl]methyl]-1-piperazinyl]-N-[[3-nitro-4-[[(tetrahydro-2H-pyran-4-yl)methyl]amino]phenyl]sulfonyl]-2-(1H-pyrrolo[2,3-b]pyridin-5-yloxy)-Benzamide]	by far attenuated cell death sensitivity	weak, but not significant decrease in tumor growth	no advantage with respect to survival	0	3/8	slightly reduced positivity for Ki-67	slightly increased caspase 3 cleavage	significant increase in green fluorescence	high cell death sensitivity	dose-dependent caspase 3 cleavage	had no effect	weak effect	had no effect	dose-dependent specific CD4+ T cell death after 24 h and 48 h with significantly higher rates in Sezary patients' cells than in those from healthy donors	high cell death sensitivity	barely any response			
CC1(C)CCC(c2ccc(Cl)cc2)=C(CN2CCN(c3ccc(C(=O)NS(=O)(=O)c4ccc(N[C@H](CCN5CCOCC5)CSc5ccccc5)c(S(=O)(=O)C(F)(F)F)c4)cc3)CC2)C1 [ABT-263, (R)-4-(4-((4′-chloro-4,4-dimethyl-3,4,5,6-tetrahydro-[1,1′-biphenyl]-2-yl)methyl)piperazin-1-yl)-N-((4-((4-morpholino-1-(phenylthio)butan-2-yl)amino)-3-((trifluoromethyl)sulfonyl)phenyl)sulfonyl)benzamide]	by far attenuated cell death sensitivity								high cell death sensitivity			weak effect		dose-dependent specific CD4+ T cell death after 24 h and 48 h with significantly higher rates in Sezary patients' cells than in those from healthy donors	high cell death sensitivity	barely any response	concentration-dependent decrease in the number of circulating platelets		
COC(=O)/C=C/C(=O)OC [DMF, Dimethyl (E)-butenedioate]		weak, but not significant decrease in tumor growth	overall survival benefit	13		slightly reduced positivity for Ki-67	slightly increased caspase 3 cleavage				could induce significant caspase 3 cleavage		had no effect					significant decrease in mitotic activity	no influence
CN(C)CC[C@H](CSc1ccccc1)Nc1ccc(S(=O)(=O)NC(=O)c2ccc(N3CCN(Cc4ccccc4-c4ccc(Cl)cc4)CC3)cc2)cc1[N+](=O)[O-] [ABT-737, 4-[4-[(4′-chloro[1,1′-biphenyl]-2-yl)methyl]-1-piperazinyl]-N-[[4-[[(1R)-3-(dimethylamino)-1-[(phenylthio)methyl]propyl]amino]-3-nitrophenyl]sulfonyl]-Benzamide]																	concentration-dependent decrease in the number of circulating platelets		
